In patent publication US7488791B2, “Mixture of peptides derived from E6 and/or E7 papillomavirus proteins and uses thereof” (priority 2001, dated 2009):

Columns and labels:
[1] = test system: DR7-restricted clone; settings: Strang et al.; cited from earlier work
[2] = test system: CD4+ T lymphocytes; experiment: Proliferation assay ([3H]-thymidine incorporation) of PBMCs / cells from patients having bowenoid papulosis; format: cell-based, human; settings: patient, DR 1501, DRB5
Protocol: A suspension of cells (PBMCs, CD8+ cell-depleted PBMCs, T lymphocytes pre-enriched by a step of culturing in vitro with the peptides selected according to the invention, or cloned T lymphocytes) is cultured for 3 to 5 days in the presence of the selected peptides and, as needed, of suitable presenting cells, such as dendritic cells, autologous or heterologous PBMCs, lymphoblastoid cells such as those obtained after infection with the EBV virus or genetically modified cells. The cell proliferation is measured by incorporation of tritiated thymidine into the DNA of the cells. The peptides selected in accordance with the invention make it possible to reveal, in the initial suspension, the presence of cells specific for these peptides. • as regards the ELISPOT assay:
To verify the stimulation of CD4+ T cell proliferation using immunogenic composition according to the invention, a proliferation assay is performed in vitro.
The cells (PBMCs) extracted from peripheral blood were cultured in 96-well microplates in a proportion of 2×10^5 cells per well, in a final volume of 200 μl of complete medium. The cells were or were not stimulated with 10 μg/ml of a mixture of peptides according to the invention. […] The cells were recovered and the [^3H]-thymidine incorporation was measured in a cellular DNA. […]

[3] = test system: E7-specific T lymphocyte lines; settings: Altmann et al.; cited from earlier work

In the case of “E6: 42-57: HPV16 E6 peptide, positions 42-57, Strang et al. (QQLLRREVYDFAFRDL; UniProt P03126 42-57, looked up, fragment)”, the “Recognition by T cell clone” value [1] is listed as “Recognized by DR7-restricted”.
For `CC[C@H](C)[C@H](N)C(=O)N[C@@H](CCCNC(=N)N)C(=O)NCC(=O)N[C@@H](CCCNC(=N)N)C(=O)N[C@@H](Cc1c[nH]c2ccccc12)C(=O)N[C@H](C(=O)NCC(=O)N[C@@H](CCCNC(=N)N)C(=O)N[C@@H](CS)C(=O)N[C@@H](CCSC)C(=O)N[C@@H](CO)C(=O)N[C@@H](CS)C(=O)N[C@@H](CS)C(=O)N[C@@H](CCCNC(=N)N)C(=O)N[C@@H](CO)C(=O)N[C@@H](CO)C(=O)N[C@@H](CCCNC(=N)N)C(=O)N[C@H](C(=O)N[C@@H](CCCNC(=N)N)C(=O)N[C@@H](CCCNC(=N)N)C(=O)N[C@@H](CCC(=O)O)C(=O)N[C@H](C(=O)N[C@@H](CCC(N)=O)C(=O)N[C@@H](CC(C)C)C(=O)O)[C@@H](C)O)[C@@H](C)O)[C@@H](C)O` [E6/10], the “Prolif: peptide recognized, in terms of proliferation, by the CD4+ T lymphocytes” value [2] was “weak”.
For “E7: 5-18: HPV16 E7 peptide, positions 5-18, Altmann et al. (TPTLHEYMLDLQPE; UniProt P03129 5-18, looked up, fragment)”, the “Recognition by T lymphocyte line or clone from a patient” value [3] is given as “Recognized by line from a DR1”.
